This passage reports IC50 results from doi:10.1101/2025.01.28.635346v1 (bioRxiv, 2025).

Each structure is given as a SMILES string. Bridge positions count the residues as written; N and C are the ends. Peptide text beside a SMILES is read from it.

In assay [1] the target is T1, integrin αvβ6 (Homo sapiens, UniProt P06756+P18564). Kind of assay: AlphaLISA competition assay vs LAP, biotinylated αvβ6. It counts as binding.
The target of assay [2] is T2, integrin αvβ8 (Homo sapiens, UniProt P06756+P26012). Kind of assay: AlphaLISA competition assay vs LAP, biotinylated αvβ8. It counts as binding.
The target in assay [3] is T1, integrin αvβ6. Kind of assay: ELISA competition assay, integrin αvβ6 binding to LAP. (An ELISA detects its analyte on a solid surface through an enzyme-linked reagent.)
The target in assay [4] is T2, integrin αvβ8. Kind of assay: ELISA competition assay, integrin αvβ8 binding to LAP.
Where [5] appears, read: αvβ6 IC50, ELISA competition vs LAP, mean, n ≥ 3.

For orientation: IC50 means the concentration needed to halve the response being measured. Lower therefore signals inhibition by little substance. Take `CC[C@H](C)[C@H](NC(=O)[C@@H]1CCCN1C(=O)[C@H](C)NC(=O)[C@H](CC(=O)O)NC(=O)CNC(=O)[C@H](CCCNC(=N)N)NC(=O)[C@@H](NC(=O)[C@H](Cc1ccccc1)NC(=O)[C@H](Cc1ccc(O)cc1)NC(=O)[C@@H]1CCC(=O)NCC(=O)NCC(=O)N[C@@H](C)C(=O)NCC(=O)N[C@@H](Cc2c[nH]cn2)C(=O)N[C@@H](C(C)C)C(=O)N2CCC[C@H]2C(=O)N1)C(C)C)C(=O)N[C@@H](CO)C(=O)N[C@@H](Cc1ccccc1)C(=O)N[C@@H](Cc1ccc(O)cc1)C(=O)NCC(=O)O` [lassotide 4] (GGAGHVPEYFVRGDAPISFYG-OH; lactam N-8; C-terminus assumed): the IC50 at integrin αvβ6 [1] came out at 436 nM; on integrin αvβ8 [2], 109 nM.
With `CC[C@H](C)[C@H](NC(=O)[C@@H]1CCCN1C(=O)[C@H](CCSC)NC(=O)[C@H](CC(=O)O)NC(=O)CNC(=O)[C@H](CCCNC(=N)N)NC(=O)[C@@H](NC(=O)[C@H](Cc1ccccc1)NC(=O)[C@H](Cc1ccc(O)cc1)NC(=O)[C@@H]1CCC(=O)NCC(=O)NCC(=O)N[C@@H](C)C(=O)NCC(=O)N[C@@H](Cc2c[nH]cn2)C(=O)N[C@@H](C(C)C)C(=O)N2CCC[C@H]2C(=O)N1)C(C)C)C(=O)N[C@@H](CO)C(=O)N[C@@H](Cc1ccccc1)C(=O)N[C@@H](Cc1ccc(O)cc1)C(=O)NCC(=O)O` [lassotide 5] (GGAGHVPEYFVRGDMPISFYG-OH; lactam N-8; C-terminus assumed), the IC50 at integrin αvβ6 [1] came out at 280 nM; on integrin αvβ8 [2], 259 nM.
Turning to `CC[C@H](C)[C@H](NC(=O)[C@@H]1CCCN1C(=O)[C@H](Cc1c[nH]cn1)NC(=O)[C@H](CC(=O)O)NC(=O)CNC(=O)[C@H](CCCNC(=N)N)NC(=O)[C@@H](NC(=O)[C@H](Cc1ccccc1)NC(=O)[C@H](Cc1ccc(O)cc1)NC(=O)[C@@H]1CCC(=O)NCC(=O)NCC(=O)N[C@@H](C)C(=O)NCC(=O)N[C@@H](Cc2c[nH]cn2)C(=O)N[C@@H](C(C)C)C(=O)N2CCC[C@H]2C(=O)N1)C(C)C)C(=O)N[C@@H](CO)C(=O)N[C@@H](Cc1ccccc1)C(=O)N[C@@H](Cc1ccc(O)cc1)C(=O)NCC(=O)O` [lassotide 6] (GGAGHVPEYFVRGDHPISFYG-OH; lactam N-8; C-terminus assumed), the IC50 at integrin αvβ6 [1] was determined as 457 nM; on integrin αvβ8 [2] it was 167 nM.
The matching figures for `CC[C@H](C)[C@H](NC(=O)[C@H](CC(C)C)NC(=O)[C@H](CC(=O)O)NC(=O)CNC(=O)[C@H](CCCNC(=N)N)NC(=O)[C@H](CCCNC(=N)N)NC(=O)[C@H](Cc1ccccc1)NC(=O)[C@H](Cc1ccc(O)cc1)NC(=O)[C@@H]1CCC(=O)NCC(=O)NCC(=O)N[C@@H](C)C(=O)NCC(=O)N[C@@H](Cc2c[nH]cn2)C(=O)N[C@@H](C(C)C)C(=O)N2CCC[C@H]2C(=O)N1)C(=O)N[C@@H](CO)C(=O)N[C@@H](Cc1ccccc1)C(=O)N[C@@H](Cc1ccc(O)cc1)C(=O)NCC(=O)O` [lassotide 20] (GGAGHVPEYFRRGDLISFYG-OH; lactam N-8; C-terminus assumed): 17 nM and 38 nM.
In the case of `CC[C@H](C)[C@H](NC(=O)[C@H](CC(C)C)NC(=O)[C@H](CC(=O)O)NC(=O)CNC(=O)[C@H](CCCNC(=N)N)NC(=O)[C@H](Cc1ccc(O)cc1)NC(=O)[C@H](Cc1ccccc1)NC(=O)[C@H](Cc1ccc(O)cc1)NC(=O)[C@@H]1CCC(=O)NCC(=O)NCC(=O)N[C@@H](C)C(=O)NCC(=O)N[C@@H](Cc2c[nH]cn2)C(=O)N[C@@H](C(C)C)C(=O)N2CCC[C@H]2C(=O)N1)C(=O)N[C@@H](CO)C(=O)N[C@@H](Cc1ccccc1)C(=O)N[C@@H](Cc1ccc(O)cc1)C(=O)NCC(=O)O` [lassotide 22] (GGAGHVPEYFYRGDLISFYG-OH; lactam N-8; C-terminus assumed), the 50% inhibitory concentration (IC50) at integrin αvβ6 [1] came to 198 nM; on integrin αvβ8 [2] it was 78 nM.
For `CC(C)C[C@H](NC(=O)[C@H](CC(=O)O)NC(=O)CNC(=O)[C@H](CCCNC(=N)N)NC(=O)[C@@H](NC(=O)[C@H](Cc1ccccc1)NC(=O)[C@H](Cc1ccc(O)cc1)NC(=O)[C@@H]1CCC(=O)NCC(=O)NCC(=O)N[C@@H](C)C(=O)NCC(=O)N[C@@H](Cc2c[nH]cn2)C(=O)N[C@@H](C(C)C)C(=O)N2CCC[C@H]2C(=O)N1)C(C)C)C(=O)N[C@@H](C)C(=O)N[C@@H](CO)C(=O)N[C@@H](Cc1ccccc1)C(=O)N[C@@H](Cc1ccc(O)cc1)C(=O)NCC(=O)O` [lassotide 23] (GGAGHVPEYFVRGDLASFYG-OH; lactam N-8; C-terminus assumed) the same measures were 27 nM and 51 nM.
The matching figures for `CC(C)C[C@H](NC(=O)[C@H](CC(=O)O)NC(=O)CNC(=O)[C@H](CCCNC(=N)N)NC(=O)[C@@H](NC(=O)[C@H](Cc1ccccc1)NC(=O)[C@H](Cc1ccc(O)cc1)NC(=O)[C@@H]1CCC(=O)NCC(=O)NCC(=O)N[C@@H](C)C(=O)NCC(=O)N[C@@H](Cc2c[nH]cn2)C(=O)N[C@@H](C(C)C)C(=O)N2CCC[C@H]2C(=O)N1)C(C)C)C(=O)N[C@@H](Cc1ccc(O)cc1)C(=O)N[C@@H](CO)C(=O)N[C@@H](Cc1ccccc1)C(=O)N[C@@H](Cc1ccc(O)cc1)C(=O)NCC(=O)O` [lassotide 25] (GGAGHVPEYFVRGDLYSFYG-OH; lactam N-8; C-terminus assumed): 295 nM and 205 nM.
For `CC(C)C[C@H](NC(=O)[C@H](CC(=O)O)NC(=O)CNC(=O)[C@H](CCCNC(=N)N)NC(=O)[C@@H](NC(=O)[C@H](Cc1ccccc1)NC(=O)[C@H](Cc1ccc(O)cc1)NC(=O)[C@@H]1CCC(=O)NCC(=O)NCC(=O)N[C@@H](C)C(=O)NCC(=O)N[C@@H](Cc2c[nH]cn2)C(=O)N[C@@H](C(C)C)C(=O)N2CCC[C@H]2C(=O)N1)C(C)C)C(=O)N[C@@H](Cc1c[nH]c2ccccc12)C(=O)N[C@@H](CO)C(=O)N[C@@H](Cc1ccccc1)C(=O)N[C@@H](Cc1ccc(O)cc1)C(=O)NCC(=O)O` [lassotide 26] (GGAGHVPEYFVRGDLWSFYG-OH; lactam N-8; C-terminus assumed) the same measures were 24 nM and 85 nM.
For `CC[C@H](C)[C@@H]1NC(=O)[C@H](CO)NC(=O)CNC(=O)[C@H](CCCNC(=N)N)NC(=O)CNC(=O)CNC(=O)CC[C@@H](C(=O)N[C@@H](Cc2ccc(O)cc2)C(=O)N[C@@H](Cc2ccccc2)C(=O)N[C@H](C(=O)N[C@@H](CCCNC(=N)N)C(=O)NCC(=O)N[C@@H](CC(=O)O)C(=O)N[C@@H](CC(C)C)C(=O)N[C@@H](CCC(N)=O)C(=O)N[C@@H](CO)C(=O)N[C@@H](Cc2ccccc2)C(=O)N[C@@H](Cc2ccc(O)cc2)C(=O)NCC(=O)O)C(C)C)NC(=O)[C@@H]2CCCN2C1=O` [lassotide 41] (GGRGSIPEYFVRGDLQSFYG-OH; lactam N-8; C-terminus assumed), the IC50 on integrin αvβ6 [3] (setting [5]) was 1.4 nM; on integrin αvβ8 [4] it was 5.8 nM.
On to `CC[C@H](C)[C@@H]1NC(=O)[C@H](CCC(N)=O)NC(=O)CNC(=O)[C@H](CCCNC(=N)N)NC(=O)CNC(=O)CNC(=O)CC[C@@H](C(=O)N[C@@H](Cc2ccc(O)cc2)C(=O)N[C@@H](Cc2ccccc2)C(=O)N[C@H](C(=O)N[C@@H](CCCNC(=N)N)C(=O)NCC(=O)N[C@@H](CC(=O)O)C(=O)N[C@@H](CC(C)C)C(=O)N[C@@H](CCC(N)=O)C(=O)N[C@@H](CO)C(=O)N[C@@H](Cc2ccccc2)C(=O)N[C@@H](Cc2ccc(O)cc2)C(=O)NCC(=O)O)C(C)C)NC(=O)[C@@H]2CCCN2C1=O` [lassotide 42] (GGRGQIPEYFVRGDLQSFYG-OH; lactam N-8; C-terminus assumed), for which the half-inhibitory concentration (IC50) on integrin αvβ6 [3] (setting [5]) stood at 3 nM; at integrin αvβ8 [4], 2.5 nM.
For `CC[C@H](C)[C@@H]1NC(=O)[C@H](CO)NC(=O)CNC(=O)[C@H](CCCNC(=N)N)NC(=O)CNC(=O)CNC(=O)CC[C@@H](C(=O)N[C@@H](Cc2ccc(O)cc2)C(=O)N[C@@H](Cc2ccccc2)C(=O)N[C@H](C(=O)N[C@@H](CCCNC(=N)N)C(=O)NCC(=O)N[C@@H](CC(=O)O)C(=O)N[C@@H](CC(C)C)C(=O)N[C@@H](CCC(N)=O)C(=O)N[C@@H](CO)C(=O)N[C@@H](Cc2ccccc2)C(=O)N[C@@H](Cc2ccc(O)cc2)C(=O)N[C@@H](CCCCN)C(=O)O)C(C)C)NC(=O)[C@@H]2CCCN2C1=O` [lassotide 43] (GGRGSIPEYFVRGDLQSFYK-OH; lactam N-8; C-terminus assumed), the values for the IC50 on integrin αvβ6 [3] (setting [5]) and at integrin αvβ8 [4] were 1.2 nM and 5.1 nM, respectively.
On to `CC(C)C[C@H](NC(=O)[C@H](CC(=O)O)NC(=O)CNC(=O)[C@H](CCCNC(=N)N)NC(=O)[C@H](CCC(N)=O)NC(=O)[C@H](Cc1ccccc1)NC(=O)[C@H](Cc1ccc(O)cc1)NC(=O)[C@@H]1CCC(=O)NCC(=O)NCC(=O)N[C@@H]([C@@H](C)O)C(=O)NCC(=O)N[C@@H](Cc2c[nH]cn2)C(=O)N[C@@H](C(C)C)C(=O)N2CCC[C@H]2C(=O)N1)C(=O)N[C@@H](CCC(N)=O)C(=O)N[C@@H](CO)C(=O)N[C@@H](Cc1ccccc1)C(=O)N[C@@H](Cc1ccc(O)cc1)C(=O)NCC(=O)O` [lassotide 45] (GGTGHVPEYFQRGDLQSFYG-OH; lactam N-8; C-terminus assumed), for which the IC50 at integrin αvβ6 [3] worked out at 0.7 nM; at integrin αvβ8 [4], 1 nM.
`CC[C@H](C)[C@@H]1NC(=O)[C@H](Cc2c[nH]cn2)NC(=O)CNC(=O)[C@H]([C@@H](C)O)NC(=O)CNC(=O)CNC(=O)CC[C@@H](C(=O)N[C@@H](Cc2ccc(O)cc2)C(=O)N[C@@H](Cc2ccccc2)C(=O)N[C@@H](CCC(N)=O)C(=O)N[C@@H](CCCNC(=N)N)C(=O)NCC(=O)N[C@@H](CC(=O)O)C(=O)N[C@@H](CC(C)C)C(=O)N[C@@H](CCC(N)=O)C(=O)N[C@@H](CO)C(=O)N[C@@H](Cc2ccccc2)C(=O)N[C@@H](Cc2ccc(O)cc2)C(=O)NCC(=O)O)NC(=O)[C@@H]2CCCN2C1=O` [lassotide 46] (GGTGHIPEYFQRGDLQSFYG-OH; lactam N-8; C-terminus assumed): the figures for the IC50 at integrin αvβ6 [3] (setting [5]) and at integrin αvβ8 [4] were 2.1 nM and 1.3 nM, respectively.
